Tests used:
SIRT1 target genes = experiment: mRNA expression of SIRT1 target genes in primary hepatocytes (quantitative real-time PCR); format: cell-based, mice; settings: 200 nM FK866 for 24 hours (FIG. 2B)
Experimental: (§1) Quantitative Real-Time PCR. Total RNA was extracted from frozen tissue with Tri Reagent (Molecular Research Center, Inc.). cDNA was synthesized using the High Capacity cDNA Reverse Transcription kit (Applied Biosystems). Real-time PCR was performed and analyzed using an Applied Biosystems 7900HT Fast Real-Time PCR System (Applied Biosystems). PCR conditions were: 10 min at 95° C., then 35 cycles of 10 s at 95° C., 15 s at 60° C. Relative expression levels (normalized to Gapdh) were determined using the comparative CT method.
(§2) Primary Hepatocyte Isolation and Adenoviral Infection.

[1] = tested on: CLOCK:BMAL1-driven transcription of Per2:luciferase; experiment: Per2:luciferase transcriptional reporter assay in HEK293 cells; format: cell-based
Experimental: Luciferase Assays. HEK293 and HepG2 cells were transiently transfected with Clock (100 ng), Bmal1 (100 ng), firefly luciferase reporter (100 ng), and renilla luciferase reporter (control for transfection efficiency) (4 ng) using Lipofectamine 2000. Increasing doses of Sirt1 (200-800 ng), resveratrol (20, 50, 100 uM), nicotinamide (1, 5, 10 mM), Ex-527 (0.1 or 1.0 uM), or FK866 (10 nM) were added as indicated. 48 hrs following transfection, cells were lysed and luciferase activity monitored using the Dual-Luciferase® Reporter Assay System (Promega). Firefly luciferase values were normalized to renilla luciferase values, and a minimum of 3 independent experiments was performed in triplicate for each assay.

Per2 RNA oscillation = Per2 RNA oscillation in primary hepatocytes following serum shock; format: cell-based, mice; settings: primary hepatocytes after serum shock, 200 nM FK866 added at t=2 (FIG. 3B); vehicle 2.2 day
Experimental: as §1, §2
Synchronization of Primary Hepatocytes by Serum Shock. Hepatocytes were synchronized by changing to media containing 50% horse serum (t=0) for 2 hrs and then maintaining cells in media containing 0.5% FBS (A. Balsalobre, F. Damiola, U. Schibler, Cell 93, 929 (1998)). For FK866 application, 200 nM FK866 was added to the culture at t=2. RNA samples were collected at the indicated time points, and the expression of clock genes was examined by quantitative real-time PCR as described above. Damping rate was assessed as the decay rate of the oscillations of averaged Per2 RNA abundance assuming exponential decay.

[2] = tested on: NAMPT-mediated NAD+ biosynthesis; settings: primary hepatocytes, 200 nM FK866 for 24 hours (FIG. 2A)
Experimental: NAD^+Measurements. NAD^+ levels were measured using HPLC with Waters 515 pumps and a 2487 detector with a Supelco LC-18-T column (15 cm×4.6 cm). Briefly, frozen liver tissues or cultured cells were extracted in 1M perchloric acid and neutralized in 3M K2CO3 on ice. After centrifugation, the supernatant was mixed with Buffer A (50 mM K2PO4/KHPO4, pH 7.0) and loaded on to the column. The HPLC was run at a flow rate of 1 ml/min with 100% Buffer A from 0-5 min, a linear gradient to 95% Buffer N5% Buffer B (100% methanol) from 5-6 min, 95% Buffer N5% Buffer B from 6-11 min, a linear gradient to 85% Buffer N15% Buffer B from 11-13 min, 85% Buffer A/15% Buffer B from 13-23 min, and a linear gradient to 100% Buffer A from 23-24 min. NAD^+ eluted as a sharp peak at 15 min and was quantitated based on the peak area compared to a standard curve and normalized to tissue weight of frozen liver tissues or to protein content of cultured cells.

Compound: O=C(/C=C/c1cccnc1)NCCCCC1CCN(C(=O)c2ccccc2)CC1 [FK866]
- reduction in mRNA expression level of G6 Pase (SIRT1 target genes): ~30%
- reduction in mRNA expression level of Pepck (SIRT1 target genes): ~30%
- CLOCK:BMAL1-driven transcription of the Per2:luciferase reporter ([1]; HEK293 cells, 10 nM FK866 for 24 or 48 hours (FIG. 2C)): significant increase
- SIRT1-dependent suppression of CLOCK:BMAL1-mediated transcription ([1]; Sirt1 (800 ng) and 10 nM FK866 for 48 hours (FIG. 2E)): abrogated
- damping rate of Per2 oscillation (Per2 RNA oscillation): 5.3 days
- NAD+ biosynthesis (NAD+ levels) [2]: significantly inhibited

Compound: Oc1ccc(C=Cc2cc(O)cc(O)c2)cc1 [resveratrol]
- Per2:luciferase transcription ([1]; increasing doses of resveratrol 20, 50 and 100 uM (FIG. 6A)): inhibited

Compound: NC(=O)c1cccnc1 [nicotinamide, 3-pyridinecarboxamide]
- Per2:luciferase transcription ([1]; increasing doses of nicotinamide 1, 5 and 10 mM (FIG. 6B)): activated

Compound: NC(=O)C1CCCc2c1[nH]c1ccc(Cl)cc21 (stereo not drawn) [EX-527]
- Per2:luciferase transcription ([1]; Ex-527 0.1 and 1.0 uM (FIG. 6C)): showed a similar trend

Reference: patent US20110123510A1, “Methods of Affecting Biological Function Through Circadian Clock Feedback Cycle by NAMPT-Mediated NAD+ Biosynthesis” (WASHINGTON UNIVERSITY, priority 2009, published 2011)
